According to US20220233624A9, “ANTI-CANCER AND ANTI-PROLIFERATIVE COMPOSITIONS, AND METHODS FOR THEIR USE IN TREATING CANCER” (Natreon, Inc., priority 2020, published 2022):
Where “and” joins values, the source holds several entries; their conditions need not be identical. Equal entries are not always repeated. Where two headings read alike, the source gives them in different places.

How the values were obtained:
[1] = tested on: Glioma PDCs (Glioblastoma Grade IV); assay: Anti-proliferation assay (CellTiterGlo, 72 h) on glioma PDCs; format: cell-based, human; details: drug alone @ 10 uM; for inhibition at 10 µM: Homo sapiens
Method: (§1) The outermost rows/columns of the plates were filled with PBS (pH 7.4) to avoid an edge-effect and were considered as blanks. Standardized aqueous extracts identified in Table 2 were prepared in main stock solutions by dissolving 1 mg of extract in 1 ml PBS (phosphate-buffered saline, pH 7.4). […] The plate was incubated in a CO2 incubator for 0/N incubation for 24 hours. […] Once extracts were added to incubated cells and mixed gently, the plate was given a brief spin and incubated in the CO2 incubator for 72 hours. The plate was removed from the incubator and 10 ul of detection reagent (CellTiterGlo®; Promega Corporation, Wisconsin, USA) added to each well of the 384 well plate. […] The assay described above is a two-dimensional (2D) assay.

[2] = tested on: Breast Cancer PDCs, Triple negative (TN), SB 36344; assay: Anti-proliferation assay on breast cancer TN PDCs; format: cell-based, human; details: drug alone @ 10 uM; for inhibition at 10 µM: Homo sapiens
Method: as §1

[3] = tested on: Non-small cell lung cancer cells (cell line NCI-H-358); assay: Anti-proliferation assay on non-small cell lung cancer cells; format: cell-based; details: Homo sapiens, NCI-H358
Method: (§2) Anti-proliferative and anti-cancer activity of extracts of this invention on non-small cell lung cancer cells and colon cancer cells were assessed generally as described in Example I and are discussed below. […] As noted throughout this application, the below data is intended to describe the present invention but not to be limiting.
(§3) Non-small cell lung cancer cells (cell line NCI-H-358) and colon cancer cells (cell line HT-29) were plated in a 384-well plate in amounts of about 1.25 k cells/well. […] Wells with untreated cells and with plain media were also included as controls. Plates passed quality control parameters.

[4] = tested on: AML cell line HL60; assay: Anti-proliferation assay on HL60 AML cells; format: cell-based; details: for inhibition at 10 µM: 72 h, Plate 1
Method: 2500 cells were plated per well in 384 well plates. […] CellTiter Glo was used as a detection reagent. Extracts were incubated with the AML HL60 cells for 72 hours.

[5] = tested on: Histiocytic lymphoma (U-937) cells; assay: Anti-proliferation assay on histiocytic lymphoma cells; format: cell-based; details: Homo sapiens
Method: (§4) Cells were plated at 1.25 k/well in 384 well plates. […] Anti-proliferative assays were generally performed as described in Example I above, in triplicate, with detection reagent CellTiterGlo. Tables 98-99 show data for controls for assays on histiocytic lymphoma (U-937) cells, and that the data passed quality control parameters. Tables 101-102 show data for controls for assays on pancreatic cancer (Panc-1) cells, and that the data passed quality control parameters. […] The assay is generally as described in Example I.

[6] = tested on: Pancreatic cancer (Panc-1) cells; assay: Anti-proliferation assay on pancreatic cancer cells; format: cell-based; details: Homo sapiens
Method: as §4

[7] = tested on: colon cancer cells (cell line HT-29); assay: Anti-proliferation assay on colon cancer cells; format: cell-based; details: Homo sapiens
Method: as §2, §3

[8] = tested on: Breast Cancer PDCs, ER/PR− Her2+ (Her2+); assay: Anti-proliferation assay on breast cancer Her2+ PDCs; format: cell-based, human; details: drug alone @ 10 uM; 10 µM
Method: as §1

[9] = tested on: Breast Cancer PDCs, ER/PR+ Her2 equivocal (HR+); assay: Anti-proliferation assay on breast cancer HR+ PDCs; format: cell-based, human; details: drug alone @ 10 uM; for inhibition at 10 µM: Homo sapiens
Method: as §1

[10] = tested on: Glioma SB 32833 Glioblastoma Grade IV patient derived cells; assay: Anti-proliferation assay on glioma PDCs SB 32833; format: cell-based; details: Homo sapiens, drug @ 10 uM
Method: The anti-cancer activity of AyuFlex®, Capros®, and Ayuric® was further tested on two other glioma PDCs taken from 2-3 different subjects (SB 6129, SB 32833 (person)). […] Also, the anti-cancer activity of AyuFlex®, Capros®, and Ayuric® was further tested on existing glioblastoma cell line U87 MG, to allow comparisons with other compositions known in the art. AyuFlex®, Capros®, and/or Ayuric® were incubated with the new PDC lines and the U87 MG cell line for 72 hours, as described in Example I above.
Table 68 relates to FIG. 31, a graph showing the efficacy of AyuFlex®, Capros®, and/or Ayuric® on Glioma SB 32833 Glioblastoma Grade IV patient derived cells, in a combination study.

[11] = tested on: CLL (Chronic lymphocytic leukemia) PDCs; assay: Anti-proliferation assay on CLL PDCs; format: cell-based, human; details: for inhibition at 10 µM: Homo sapiens
Method: as §1

[12] = tested on: Prostate cancer (PC-3) cells; assay: Anti-proliferation assay on prostate cancer cells; format: cell-based; details: Homo sapiens
Method: Cells were plated at 1.25 k/well in 384 well plates. […] Anti-proliferative assays were generally performed as discussed in Example I above, in triplicate, with detection reagent CellTiterGlo. Tables 80-82 show data for controls for assays on prostate cancer (PC-3 cells), and that the data passed quality control parameters. Tables 83-85 show data for controls for assays on ovarian cancer (OVCAR-3 cells), and that the data passed quality control parameters.

[13] = read-out: % Inhibition, single replicates
[14] = drug 10 uM, read-out: inhibition of proliferation
[15] = plate control @ 10 uM, read-out: % Inhibition Average (SD)
[16] = plate control @ 10 uM, read-out: % Inhibition n1
[17] = plate control @ 10 uM, read-out: % Inhibition n2
[18] = plate control @ 10 uM, read-out: % Inhibition n3
[19] = 10 uM, 72 h, read-out: % Inhibition Average (SD)
[20] = 10 uM, 72 h, read-out: % Inhibition n1
[21] = 10 uM, 72 h, read-out: % Inhibition n2
[22] = 10 uM, 72 h, read-out: % Inhibition n3
[23] = drug 10 uM, read-out: inhibition

`COc1cccc2c1C(=O)c1c(O)c3c(c(O)c1C2=O)C[C@@](O)(C(=O)CO)C[C@@H]3O[C@H]1C[C@H](N)[C@H](O)[C@H](C)O1` [Doxorubicin, doxorubicin] was tested, and the inhibition at 10 µM ([1]; read-out: % Inhibition Avg) was 82%, the inhibition at 10 µM [1, 13] was 81% and the “% Inhibition Avg” value ([1]; 10 µM) was 97%. For the same molecule, the “% Inhibition, single replicates” value ([1]; 10 µM) was 83% and 98% and 97% and 96%, the inhibition at 10 µM ([2]; read-out: % Inhibition Avg) was 73% and the inhibition at 10 µM [2, 13] was 73%. The “% Inhibition Avg” value ([2]; 10 µM) was 93%, the “% Inhibition, single replicates” value ([2]; 10 µM) was 72% and 91% and 92% and the inhibition at 10 µM [3, 14] was 78%. It also gave an inhibition at 10 µM [3, 15] of 78%, an inhibition at 10 µM [3, 16] of 79% and an inhibition at 10 µM [3, 17] of 77%. For the same molecule, the inhibition at 10 µM [3, 18] was 77%, the IC25 ([4]; HL60 AML cells, potential dosing for further experiments) was 59 nM and the inhibition at 3 µM ([4]; Homo sapiens, HL-60) was ≥ 90%. It also gave an inhibition at 10 µM ([4]; Homo sapiens, HL-60, read-out: % Inhibition Average (SD)) of 0%, an inhibition at 10 µM ([4]; Homo sapiens, HL-60, read-out: % Inhibition n1) of 100% and an inhibition at 10 µM ([4]; Homo sapiens, HL-60, read-out: % Inhibition n2) of 100%. For the same molecule, the inhibition at 10 µM ([4]; Homo sapiens, HL-60, read-out: % Inhibition n3) was 100%, the IC50 ([4]; Homo sapiens, HL-60, dose-response curve, FIG. 35) was 79 nM and the inhibition at 10 µM [5, 19] was 100%. For the same molecule, the inhibition at 10 µM [5, 20] was 100%, the inhibition at 10 µM [5, 21] was 100% and the inhibition at 10 µM [5, 22] was 100%. For the same molecule, the inhibition at 10 µM [5, 23] was 100%, the inhibition at 10 µM [6, 19] was 94% and the inhibition at 10 µM [6, 20] was 94%. For the same molecule, the inhibition at 10 µM [6, 21] was 94%, the inhibition at 10 µM [6, 22] was 95% and the inhibition at 10 µM [6, 23] was 94%. The inhibition at 10 µM [7, 14] was 94%, the inhibition at 10 µM [7, 15] was 94% and the inhibition at 10 µM [7, 16] was 94%. The inhibition at 10 µM [7, 17] was 93%, the inhibition at 10 µM [7, 18] was 94% and the “% Inhibition Avg” value [8] was 60% and 96%. The “% Inhibition, single replicates” value [8] was 62% and 58% and 95% and 97%, the inhibition at 10 µM ([9]; read-out: % Inhibition Avg) was 78% and the inhibition at 10 µM [9, 13] was 75%. The “% Inhibition Avg” value ([9]; 10 µM) was 77%, the “% Inhibition, single replicates” value ([9]; 10 µM) was 81% and the inhibition at 10 µM ([10]; read-out: % Inhibition Avg) was 87%. For the same molecule, the inhibition at 10 µM ([10]; read-out: % Inhibition n1) was 91%, the inhibition at 10 µM ([10]; read-out: % Inhibition n2) was 86% and the inhibition at 10 µM ([10]; read-out: % Inhibition n3) was 86%. The inhibition at 10 µM ([11]; Doxorubicin @ 10 uM, read-out: % Inhibition Avg) was 2%, the inhibition at 10 µM ([11]; Doxorubicin @ 10 uM, read-out: % Inhibition n1) was 16% and the inhibition at 10 µM ([11]; Doxorubicin @ 10 uM, read-out: % Inhibition n2) was -9%. It also gave an inhibition at 10 µM ([11]; Doxorubicin @ 10 uM, read-out: % Inhibition n3) of 1%, an inhibition at 10 µM ([11]; drug alone @ 10 uM, read-out: % Inhibition Avg) of 55% and an inhibition at 10 µM ([11]; drug alone @ 10 uM, read-out: % Inhibition, single replicates) of 50%. For the same molecule, the “% Inhibition, single replicates” value ([11]; drug alone @ 10 uM, 10 µM) was 61%, the “anti-cancer activity (in words)” value ([11]; extracts 100, 30, 10 ug/ml, doxorubicin 10 uM) was “relatively low inhibitory activity” and the inhibition at 10 µM [12, 19] was 70%. The inhibition at 10 µM [12, 20] was 70%, the inhibition at 10 µM [12, 21] was 70% and the inhibition at 10 µM [12, 22] was 71%. The inhibition at 10 µM [12, 23] was 70%.
